Literature values in patent US7342124B2, “Synthetic techniques and intermediates for polyhydroxy dienyl lactones and mimics thereof” (The Trustees Of The University Of Pennsylvania, priority 2003, dated 2008).

What was measured:
[1] = test system: two-way mixed-lymphocyte reaction; settings: in vitro
[2] = test system: cell development (M phase); settings: by binding and stabilizing mitotic spindle microtubules
[3] = test system: mitotic spindle microtubules; settings: compared with taxol
[4] = test system: graft-vs.-host splenomegaly response; settings: induced by injection of parental splenocytes into F1 recipient mice
[5] = test system: murine splenocytes; settings: in vitro

Structure (SMILES): C=C/C=C\[C@H](C)[C@H](OC(N)=O)[C@@H](C)[C@H](O)[C@@H](C)C/C(C)=C\[C@H](C)[C@@H](O)[C@@H](C)/C=C\[C@@H](O)C[C@@H]1OC(=O)[C@H](C)[C@@H](O)[C@H]1C [(+)-discodermolide]
- suppression of two-way mixed-lymphocyte reaction [1]: suppresses
- cell cycle arrest [2]: arrests cell development at the M phase
- microtubule binding affinity relative to taxol [3]: much higher
- suppression of graft-vs.-host splenomegaly response, relative potency [4]: potency intermediate between those of cyclosporin A and FK506
- associated cytotoxicity ([5]; at suppression of mixed-lymphocyte reaction and concanavalin A-induced mitogenesis): no associated cytotoxicity
- suppression of concanavalin A-induced mitogenesis ([5]; murine splenocytes): suppresses
